In patent publication US5378706A, “Fused-thiazole derivatives active on the cholinergic system, and pharmaceutical compositions containing same” (Sanofi, priority 1987, dated 1995):

Assays:
[1] = target: T1, M1 -type muscarinic cholinergic receptor (Rattus norvegicus, UniProt P08482); assay: biochemical; format: binding; conditions: for IC50: rat hippocampus homogenate, 3H-PZ 1 nM, 2 hours at 4° C., pH 7.40, read-out: IC50 3H-PZ (M1); for ratio R of the IC50 values for the M1 and M2 receptors: selectivity, values correspond to IC50 M2 / IC50 M1
T1 sequence (P08482 1-460): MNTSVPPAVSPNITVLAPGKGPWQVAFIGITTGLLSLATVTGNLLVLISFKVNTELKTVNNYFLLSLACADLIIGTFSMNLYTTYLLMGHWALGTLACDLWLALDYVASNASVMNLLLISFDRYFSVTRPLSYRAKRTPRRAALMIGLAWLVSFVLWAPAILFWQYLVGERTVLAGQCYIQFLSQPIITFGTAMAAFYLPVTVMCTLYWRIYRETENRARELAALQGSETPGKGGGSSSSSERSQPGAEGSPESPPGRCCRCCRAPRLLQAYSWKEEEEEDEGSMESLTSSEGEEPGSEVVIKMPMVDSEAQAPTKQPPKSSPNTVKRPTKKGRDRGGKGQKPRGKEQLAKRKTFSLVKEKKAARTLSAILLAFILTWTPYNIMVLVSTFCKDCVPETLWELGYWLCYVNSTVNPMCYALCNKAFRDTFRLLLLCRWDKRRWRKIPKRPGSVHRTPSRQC
Procedure: The interaction of the molecules with the M1 -type muscarinic receptors was studied by in vitro measurement, on a rat hippocampus homogenate, of the displacement of tritiated pirenzepine from its specific binding sites. Aliquots (10 μl) of a 5% (w/v) rat hippocampus homogenate in an Na2 HPO4 buffer (50 mM, pH 7.40) are incubated for 2 hours at 4° C. in the presence of ^3 H-PZ (76 Ci/mmol; final concentration 1 nM) and increasing concentrations of the test product. The final volume is 2 ml. The reaction is stopped by centrifugation for 10 minutes at 50,000×g. After decantation and washing of the residues, the bound radioactivity is counted by liquid scintillation. The non-specific binding is determined in the presence of 10 μM atropine sulfate.

[2] = tested on: M1 central muscarinic cholinergic receptors; assay: Antagonism of rotations induced by intrastriatal injection of pirenzepine in mice; format: in vivo, mice (Swiss, CD 1); conditions: for Pirenzepine antagonism ED50 i.p.: 15 minutes before intrastriatal pirenzepine 1 μg; for Pirenzepine antagonism ED50 p.o.: 30 minutes before intrastriatal pirenzepine 1 μg
Procedure: Pirenzepine (PZ) is a specific antagonist of the M1 central muscarinic cholinergic receptors. The intrastriatal injection of PZ into mice induces rotatory behavoir. The antagonism of this behavoir by the products according to the invention was studied.
The products according to the invention are administered either intraperitoneally (i.p.) or orally (p.o.) after solubilization in distilled water or suspension in a 5% solution of gum arabic. The control animals receive the pure solvent under the same conditions.
The animals used are female mice (Swiss, CD 1, Charles River, France) with a body weight of between 25 and 30 grams.
The pirenzepine is dissolved in a phosphate buffer and the pH of the solution is 6.
The test products or their solvents are administered in a volume of 0.4 ml per 20 g of body weight, either by i.p. injection or orally via an esophageal tube.
The number of contralateral rotations (rotations in the opposite direction to the side injected) was counted for three 2-minute periods after injection of the pirenzepine: 2nd to 4th, 8th to 10th and 13th to 15th minutes. Each treatment consists of 3 to 4 doses and 10 animals per dose. The total number of rotations and the percentage antagonism with respect to the control group are calculated for each treatment.

[3] = Acute toxicity, 24 hours mortality after i.p. administration to mice; conditions: mouse, in vivo, ip, female mice, 20 g
Procedure: Finally, the acute toxicity was determined for various products according to the invention. The products were administered intraperitoneally in increasing doses to groups of 10 female mice (Swiss, CD 1, Charles River, France) with a body weight of 20 g.

[4] = target: T2, M2 -type muscarinic cholinergic receptor (Cavia porcellus, UniProt H0VRN8); assay: Affinity for the M2-type muscarinic cholinergic receptor, displacement of tritiated N-methylscopolamine (3H-NMS) on smooth guinea-pig ileum muscle homogenate; format: binding; conditions: guinea-pig ileum smooth muscle homogenate, 3H-NMS 0.3 nM, 20 minutes at 30° C., pH 7.5; read-out: IC50 3H-NMS (M2)
T2 construct: on a smooth guinea-pig ileum muscle homogenate; from tissue; host or cells: guinea-pig ileum smooth muscle homogenate
T2 sequence (H0VRN8 1-466): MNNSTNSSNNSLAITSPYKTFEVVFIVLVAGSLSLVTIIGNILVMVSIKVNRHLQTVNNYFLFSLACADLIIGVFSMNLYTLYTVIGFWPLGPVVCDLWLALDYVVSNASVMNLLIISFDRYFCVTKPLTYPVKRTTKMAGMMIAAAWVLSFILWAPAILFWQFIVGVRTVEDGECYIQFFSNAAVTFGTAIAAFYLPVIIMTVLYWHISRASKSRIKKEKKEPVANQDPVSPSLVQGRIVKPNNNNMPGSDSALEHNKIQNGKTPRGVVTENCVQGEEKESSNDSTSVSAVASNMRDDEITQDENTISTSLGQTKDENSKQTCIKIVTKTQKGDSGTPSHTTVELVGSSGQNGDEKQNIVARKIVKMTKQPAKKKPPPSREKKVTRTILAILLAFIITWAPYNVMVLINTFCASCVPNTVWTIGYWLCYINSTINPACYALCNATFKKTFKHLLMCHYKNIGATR
Procedure: The M1 -type receptors are concentrated in certain regions of the brain, such as the hippocampus, the cerebral cortex and the striatum, and also in the sympathetic ganglia. These binding sites can be selectively labeled with tritiated pirenzepine (^3 H-PZ). The M2 -type receptors predominate in the heart and the ileum and can be labeled with tritiated N-methyl-scopolamine (^3 H-NMS). The selectivity of the products of the invention with respect to the M1 and M2 sites was determined by studying their in vitro interaction with ^3 H-PZ and ^3 H-NMS firmly bound with a high affinity to rat hippocampus membranes and smooth guinea-pig ileum muscle, respectively.
The interaction with the M2 -type muscarinic receptors was studied by in vitro measurement, on a smooth guinea-pig ileum muscle homogenate, of the displacement of tritiated N-methylscopolamine from its specific binding sites. […] The final volume is 1 ml. The reaction is stopped by centrifugation for 5 minutes at 15,000×g. The non-specific binding is determined in the presence of 10 mM atropine sulfate.
The IC50 for ^3 H-PZ displacement represents the affinity for the M1 receptor; the IC50 for ^3 H-NMS displacement represents the affinity for the M2 receptor.

SMILES | IC50 [1] | ratio R of the IC50 values for the M1 and M2 receptors [1] | Pirenzepine antagonism ED50 i.p. [2] | Pirenzepine antagonism ED50 p.o. [2] | LD50 at 24 h [3] | IC50 [4]
CCN(CC)CCCNc1nc(C)c(-c2ccccc2)s1 [SR 44373 A] | 0.7 µM | 21 | 0.3 mg/kg | 1 mg/kg | 75 mg/kg | 15 µM
CCN(CC)CCNc1nc(-c2c(C)cc(C)cc2C)cs1 [SR 44372 A] | 0.12 µM | 41 | 1 mg/kg | 3 mg/kg | 75 mg/kg | 5 µM
CN(C)CCCNc1nc(-c2ccccc2)cs1 [SR 44345 A] | 1 µM | 70 | 0.5 mg/kg | 1 mg/kg | 200 mg/kg | 70 µM
c1ccc(-c2csc(NCCCN3CCOCC3)n2)cc1 [SR 44284 A] | 8 µM | 5 | 8 mg/kg |  | 450 mg/kg | 40 µM
CCN(CC)CCCNc1nc(-c2c(C)cc(C)cc2C)cs1 [SR 44347 A] | 0.35 µM | 37 | 0.03 mg/kg | 0.20 mg/kg | 60 mg/kg | 13 µM
c1ccc(-c2csc(NCCN3CCOCC3)n2)cc1 [SR 44244 A] |  |  | 8 mg/kg | 20 mg/kg | 250 mg/kg | 
CCN(CC)CCCNc1nc(-c2ccccc2)cs1 [SR 44374 A] | 0.4 µM | 20 | 3 mg/kg |  | 150 mg/kg | 8 µM
CCN(CC)CCNc1nc(-c2ccccc2)cs1 [SR 44286 A] | 6 µM | 16 | 3 mg/kg | 10 mg/kg | 200 mg/kg | 100 µM
